Source: ChEMBL document CHEMBL1129456, “Synthesis and evaluation of two positron-labeled nitric oxide synthase inhibitors, S-[11C]methylisothiourea and S-(2-[18F]fluoroethyl)isothiourea, as potential positron emission tomography tracers” (J Med Chem, 1996)
pIC50: −log10 of the molar value.

Assays:
Rattus norvegicus [1] = species: Rattus norvegicus; assay: Biodistribution inl ilver of mature female Dawley rat after 30min, expressed as percent injected dose/g; type: ADME, organism-based; conditions: in vivo, 0.5 h
Rattus norvegicus [2] = species: Rattus norvegicus; assay: Biodistribution in abdominal of mature female Dawley rat after 1h, expressed as percent injected dose/g; type: ADME, organism-based, Abdominal cavity; conditions: in vivo
Rattus norvegicus [3] = species: Rattus norvegicus; assay: Biodistribution in lung of mature female Dawley rat after 10min, expressed as percent injected dose/g; type: ADME, organism-based; conditions: in vivo
Rattus norvegicus [4] = species: Rattus norvegicus; assay: Biodistribution in blood of mature female Dawley rat after 3 h, expressed as percent injected dose/g; type: ADME, organism-based; conditions: in vivo
Rattus norvegicus [5] = species: Rattus norvegicus; assay: Biodistribution in muscle of mature female Dawley rat after 3 h, expressed as percent injected dose/g; type: ADME, organism-based, Muscle tissue; conditions: in vivo
Rattus norvegicus [6] = species: Rattus norvegicus; assay: Biodistribution in brain of mature female Dawley rat after 30min, expressed as percent injected dose/g; type: ADME, organism-based; conditions: in vivo, 0.5 h
Rattus norvegicus [7] = species: Rattus norvegicus; assay: Biodistribution in blood of mature female Dawley rat after 1h, expressed as percent injected dose/g; type: ADME, organism-based; conditions: in vivo
Rattus norvegicus [8] = species: Rattus norvegicus; assay: Biodistribution in blood of mature female Dawley rat after 10min, expressed as percent injected dose/g; type: ADME, organism-based; conditions: in vivo
Rattus norvegicus [9] = species: Rattus norvegicus; assay: Biodistribution in bone of mature female Dawley rat after 30min, expressed as percent injected dose/g; type: ADME, organism-based, Bone element; conditions: in vivo, 0.5 h
Rattus norvegicus [10] = species: Rattus norvegicus; assay: Biodistribution in abdominal of mature female Dawley rat after 10min, expressed as percent injected dose/g; type: ADME, organism-based, Abdominal cavity; conditions: in vivo
Rattus norvegicus [11] = species: Rattus norvegicus; assay: Biodistribution in lung of mature female Dawley rat after 3 h, expressed as percent injected dose/g; type: ADME, organism-based; conditions: in vivo
Rattus norvegicus [12] = species: Rattus norvegicus; assay: Biodistribution in kidney of mature female Dawley rat after 30min, expressed as percent injected dose/g; type: ADME, organism-based; conditions: in vivo, 0.5 h
Rattus norvegicus [13] = species: Rattus norvegicus; assay: Biodistribution in kidney of mature female Dawley rat after 3 h, expressed as percent injected dose/g; type: ADME, organism-based; conditions: in vivo
Rattus norvegicus [14] = species: Rattus norvegicus; assay: Biodistribution in bone of mature female Dawley rat after 3 h, expressed as percent injected dose/g; type: ADME, organism-based, Bone element; conditions: in vivo
Rattus norvegicus [15] = species: Rattus norvegicus; assay: Biodistribution in kidney of mature female Dawley rat after 10min, expressed as percent injected dose/g; type: ADME, organism-based; conditions: in vivo
Rattus norvegicus [16] = species: Rattus norvegicus; assay: Biodistribution in brain of mature female Dawley rat after 10min, expressed as percent injected dose/g; type: ADME, organism-based; conditions: in vivo
Rattus norvegicus [17] = species: Rattus norvegicus; assay: Biodistribution in heart of mature female Dawley rat after 3 h, expressed as percent injected dose/g; type: ADME, organism-based; conditions: in vivo
Rattus norvegicus [18] = species: Rattus norvegicus; assay: Biodistribution in blood of mature female Dawley rat after 30min, expressed as percent injected dose/g; type: ADME, organism-based; conditions: in vivo, 0.5 h
Rattus norvegicus [19] = species: Rattus norvegicus; assay: Biodistribution in muscle of mature female Dawley rat after 30min, expressed as percent injected dose/g; type: ADME, organism-based, Muscle tissue; conditions: in vivo, 0.5 h
Rattus norvegicus [20] = species: Rattus norvegicus; assay: Biodistribution in heart of mature female Dawley rat after 10min, expressed as percent injected dose/g; type: ADME, organism-based; conditions: in vivo
Rattus norvegicus [21] = species: Rattus norvegicus; assay: Biodistribution in bone of mature female Dawley rat after 1h, expressed as percent injected dose/g; type: ADME, organism-based, Bone element; conditions: in vivo
Rattus norvegicus [22] = species: Rattus norvegicus; assay: Biodistribution in lung of mature female Dawley rat after 30min, expressed as percent injected dose/g; type: ADME, organism-based; conditions: in vivo, 0.5 h
Rattus norvegicus [23] = species: Rattus norvegicus; assay: Biodistribution in heart of mature female Dawley rat after 1h, expressed as percent injected dose/g; type: ADME, organism-based; conditions: in vivo
Rattus norvegicus [24] = species: Rattus norvegicus; assay: Biodistribution in fat of mature female Dawley rat after 1h, expressed as percent injected dose/g; type: ADME, organism-based, Adipose tissue; conditions: in vivo
Rattus norvegicus [25] = species: Rattus norvegicus; assay: Biodistribution in muscle of mature female Dawley rat after 10min, expressed as percent injected dose/g; type: ADME, organism-based, Muscle tissue; conditions: in vivo
Rattus norvegicus [26] = species: Rattus norvegicus; assay: Biodistribution inl iver of mature female Dawley rat after 3 h, expressed as percent injected dose/g; type: ADME, organism-based, Liver; conditions: in vivo
Rattus norvegicus [27] = species: Rattus norvegicus; assay: Biodistribution in brain of mature female Dawley rat after 3 h, expressed as percent injected dose/g; type: ADME, organism-based; conditions: in vivo
Rattus norvegicus [28] = species: Rattus norvegicus; assay: Biodistribution in kidney of mature female Dawley rat after 1h, expressed as percent injected dose/g; type: ADME, organism-based; conditions: in vivo
Rattus norvegicus [29] = species: Rattus norvegicus; assay: Biodistribution in abdominal of mature female Dawley rat after 3 h, expressed as percent injected dose/g; type: ADME, organism-based, Abdominal cavity; conditions: in vivo
Rattus norvegicus [30] = species: Rattus norvegicus; assay: Biodistribution in lung of mature female Dawley rat after 1h, expressed as percent injected dose/g; type: ADME, organism-based; conditions: in vivo
Rattus norvegicus [31] = species: Rattus norvegicus; assay: Biodistribution in brain of mature female Dawley rat after 1h, expressed as percent injected dose/g; type: ADME, organism-based; conditions: in vivo
Rattus norvegicus [32] = species: Rattus norvegicus; assay: Biodistribution in heart of mature female Dawley rat after 30min, expressed as percent injected dose/g; type: ADME, organism-based; conditions: in vivo, 0.5 h
Rattus norvegicus [33] = species: Rattus norvegicus; assay: Biodistribution inl liver of mature female Dawley rat after 1h, expressed as percent injected dose/g; type: ADME, organism-based; conditions: in vivo
Rattus norvegicus [34] = species: Rattus norvegicus; assay: Biodistribution in abdominal Dawley rat after 30min, expressed as percent injected dose/g; type: ADME, organism-based; conditions: in vivo, 0.5 h
Rattus norvegicus [35] = species: Rattus norvegicus; assay: Biodistribution in liver of mature female Dawley rat after 10min, expressed as percent injected dose/g; type: ADME, organism-based; conditions: in vivo
Rattus norvegicus [36] = species: Rattus norvegicus; assay: Biodistribution in fat of mature female Dawley rat after 10min, expressed as percent injected dose/g; type: ADME, organism-based, Adipose tissue; conditions: in vivo
Rattus norvegicus [37] = species: Rattus norvegicus; assay: Biodistribution in fat of mature female Dawley rat after 3 h, expressed as percent injected dose/g; type: ADME, organism-based, Adipose tissue; conditions: in vivo
Rattus norvegicus [38] = species: Rattus norvegicus; assay: Biodistribution in bone of mature female Dawley rat after 10min, expressed as percent injected dose/g; type: ADME, organism-based, Bone element; conditions: in vivo
Rattus norvegicus [39] = species: Rattus norvegicus; assay: Biodistribution in muscle of mature female Dawley rat after 1h, expressed as percent injected dose/g; type: ADME, organism-based, Muscle tissue; conditions: in vivo
Rattus norvegicus [40] = species: Rattus norvegicus; assay: Biodistribution in fat of mature female Dawley rat after 30min, expressed as percent injected dose/g; type: ADME, organism-based, Adipose tissue; conditions: in vivo, 0.5 h
Nitric oxide synthase 3 = biological target: T1, Nitric oxide synthase 3 (Homo sapiens, UniProt P29474); assay: The compound was evaluated for the inhibitory potencies using human Endothelial nitric oxide synthase
T1 sequence (P29474 whole entry): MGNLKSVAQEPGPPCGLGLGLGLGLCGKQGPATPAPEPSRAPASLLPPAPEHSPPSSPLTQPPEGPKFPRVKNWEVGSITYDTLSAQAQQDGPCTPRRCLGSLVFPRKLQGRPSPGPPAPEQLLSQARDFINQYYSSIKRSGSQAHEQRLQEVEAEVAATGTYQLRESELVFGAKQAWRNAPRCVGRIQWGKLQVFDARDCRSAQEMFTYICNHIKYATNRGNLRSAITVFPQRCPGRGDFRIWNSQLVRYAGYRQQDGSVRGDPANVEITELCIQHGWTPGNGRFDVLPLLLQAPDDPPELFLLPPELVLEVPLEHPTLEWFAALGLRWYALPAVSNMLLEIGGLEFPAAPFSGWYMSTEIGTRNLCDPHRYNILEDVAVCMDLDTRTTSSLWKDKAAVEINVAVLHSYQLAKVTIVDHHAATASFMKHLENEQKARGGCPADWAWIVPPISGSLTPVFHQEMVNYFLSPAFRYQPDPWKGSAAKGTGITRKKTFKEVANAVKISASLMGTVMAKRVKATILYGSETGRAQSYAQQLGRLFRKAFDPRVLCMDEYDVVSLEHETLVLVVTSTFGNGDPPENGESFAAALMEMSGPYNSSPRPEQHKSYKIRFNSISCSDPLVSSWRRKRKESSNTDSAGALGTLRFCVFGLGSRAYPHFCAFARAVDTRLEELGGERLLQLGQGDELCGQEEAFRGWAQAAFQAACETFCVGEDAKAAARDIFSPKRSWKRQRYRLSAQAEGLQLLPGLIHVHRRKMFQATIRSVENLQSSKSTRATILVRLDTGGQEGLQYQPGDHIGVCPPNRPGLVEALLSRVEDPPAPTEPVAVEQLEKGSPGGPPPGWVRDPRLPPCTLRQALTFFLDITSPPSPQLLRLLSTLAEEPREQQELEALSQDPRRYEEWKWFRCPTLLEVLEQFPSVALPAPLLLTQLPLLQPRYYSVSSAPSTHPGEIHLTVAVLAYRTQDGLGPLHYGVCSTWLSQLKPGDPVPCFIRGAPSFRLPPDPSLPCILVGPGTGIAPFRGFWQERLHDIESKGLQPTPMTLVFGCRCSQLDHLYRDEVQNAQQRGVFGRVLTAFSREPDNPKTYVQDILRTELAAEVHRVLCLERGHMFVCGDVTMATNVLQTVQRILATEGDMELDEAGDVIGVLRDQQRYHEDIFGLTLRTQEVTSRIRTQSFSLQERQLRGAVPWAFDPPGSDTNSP

[41] = biological target: Nitric oxide synthase, inducible (Homo sapiens, UniProt P35228); assay: The compound was evaluated for the inhibitory potencies using human Inducible nitric oxide synthase (hiNOS)
Sequence of Nitric oxide synthase, inducible (P35228 whole entry): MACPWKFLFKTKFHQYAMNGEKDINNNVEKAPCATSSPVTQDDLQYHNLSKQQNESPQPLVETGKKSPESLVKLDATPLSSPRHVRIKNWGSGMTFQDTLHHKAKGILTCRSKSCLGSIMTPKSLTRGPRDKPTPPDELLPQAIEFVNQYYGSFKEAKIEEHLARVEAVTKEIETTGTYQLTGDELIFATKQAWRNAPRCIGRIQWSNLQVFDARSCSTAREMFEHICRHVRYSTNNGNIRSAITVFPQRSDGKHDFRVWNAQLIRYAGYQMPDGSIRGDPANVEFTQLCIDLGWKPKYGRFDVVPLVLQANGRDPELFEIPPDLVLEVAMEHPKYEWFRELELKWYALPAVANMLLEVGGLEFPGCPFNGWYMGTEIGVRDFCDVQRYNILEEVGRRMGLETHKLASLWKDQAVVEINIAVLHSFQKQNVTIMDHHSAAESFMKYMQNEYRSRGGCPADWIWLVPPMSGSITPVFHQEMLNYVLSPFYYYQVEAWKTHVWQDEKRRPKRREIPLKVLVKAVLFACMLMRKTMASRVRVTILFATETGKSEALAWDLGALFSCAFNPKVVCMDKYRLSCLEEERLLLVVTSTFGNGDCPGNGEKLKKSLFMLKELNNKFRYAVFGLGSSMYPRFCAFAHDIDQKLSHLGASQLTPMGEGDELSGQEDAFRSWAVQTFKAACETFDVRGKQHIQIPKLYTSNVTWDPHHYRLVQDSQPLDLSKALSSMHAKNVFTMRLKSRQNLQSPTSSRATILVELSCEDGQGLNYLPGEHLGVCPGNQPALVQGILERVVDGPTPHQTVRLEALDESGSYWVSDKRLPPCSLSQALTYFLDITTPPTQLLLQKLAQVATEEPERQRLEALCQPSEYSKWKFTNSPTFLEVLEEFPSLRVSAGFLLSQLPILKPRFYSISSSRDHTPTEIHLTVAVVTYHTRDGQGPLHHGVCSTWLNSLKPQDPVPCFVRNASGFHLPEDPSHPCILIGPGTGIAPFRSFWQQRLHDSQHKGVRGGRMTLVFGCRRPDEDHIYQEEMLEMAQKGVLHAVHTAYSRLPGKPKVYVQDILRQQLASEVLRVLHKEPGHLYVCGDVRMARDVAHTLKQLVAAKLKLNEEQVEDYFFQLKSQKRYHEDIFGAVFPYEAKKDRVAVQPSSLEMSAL

N=C(N)SCC[18F]
Biodistribution (Rattus norvegicus [1]): 0.51%
Biodistribution (Rattus norvegicus [2]): 0.26%
Biodistribution (Rattus norvegicus [3]): 1.02%
Biodistribution (Rattus norvegicus [4]): 0.19%
Biodistribution (Rattus norvegicus [5]): 0.14%
Biodistribution (Rattus norvegicus [6]): 0.15%
Biodistribution (Rattus norvegicus [7]): 0.32%
Biodistribution (Rattus norvegicus [8]): 0.32%
Biodistribution (Rattus norvegicus [9]): 0.82%
Biodistribution (Rattus norvegicus [10]): 0.38%
Biodistribution (Rattus norvegicus [11]): 0.17%
Biodistribution (Rattus norvegicus [12]): 1.06%
Biodistribution (Rattus norvegicus [13]): 0.21%
Biodistribution (Rattus norvegicus [14]): 1.19%
Biodistribution (Rattus norvegicus [15]): 1.82%
Biodistribution (Rattus norvegicus [16]): 0.14%
Biodistribution (Rattus norvegicus [17]): 0.16%
Biodistribution (Rattus norvegicus [18]): 0.27%
Biodistribution (Rattus norvegicus [19]): 0.38%
Biodistribution (Rattus norvegicus [20]): 0.62%
Biodistribution (Rattus norvegicus [21]): 0.88%
Biodistribution (Rattus norvegicus [22]): 0.57%
Biodistribution (Rattus norvegicus [23]): 0.29%
Biodistribution (Rattus norvegicus [24]): 0.07%
Biodistribution (Rattus norvegicus [25]): 0.33%
Biodistribution (Rattus norvegicus [26]): 0.16%
Biodistribution (Rattus norvegicus [27]): 0.16%
Biodistribution (Rattus norvegicus [28]): 0.64%
Biodistribution (Rattus norvegicus [29]): 0.16%
Biodistribution (Rattus norvegicus [30]): 0.38%
Biodistribution (Rattus norvegicus [31]): 0.17%
Biodistribution (Rattus norvegicus [32]): 0.37%
Biodistribution (Rattus norvegicus [33]): 0.35%
Biodistribution (Rattus norvegicus [34]): 0.31%
Biodistribution (Rattus norvegicus [35]): 0.95%
Biodistribution (Rattus norvegicus [36]): 0.08%
Biodistribution (Rattus norvegicus [37]): 0.04%
Biodistribution (Rattus norvegicus [38]): 0.55%
Biodistribution (Rattus norvegicus [39]): 0.32%
Biodistribution (Rattus norvegicus [40]): 0.07%

N=C(N)SCCF
pIC50 (Nitric oxide synthase 3): 5.90
pIC50 [41]: 6.85
